According to patent US20110207119A1, “METHODS FOR PREDICTING A CANCER PATIENT'S RESPONSE TO SUNITINIB” (priority 2010, published 2011):

Test system: primary breast carcinoma cultures
Test: in vitro chemoresponse assay on primary breast carcinoma cultures (DAPI nuclei count, aAUC of dose response curve)
Assay type: cell-based
Conditions: 39 primary breast cancer cultures, single agent, 10 doses 0.108-55.3 μM, 72 hours
Protocol: After assay development, thirty-nine primary breast carcinoma cultures were treated with sunitinib at the doses shown in Table 1.
All specimens treated with the drug were confirmed to contain a majority of epithelial cells (>65%) via immunocytochemistry. A 10-dose range of drug concentrations was used to treat the cell line and breast specimens for 72 hours. After treatment, the cultures were fixed with ethanol, and stained with DAPI. Any cells remaining adherent after treatment were considered live, and the DAPI stained nuclei were counted. The resulting dose response curves were analyzed.
aAUC values were calculated, essentially as follows:
(Xi is the normalized cell count of dose i)

## CCN(CC)CCNC(=O)c1c(C)[nH]c(/C=C2\C(=O)Nc3ccc(F)cc32)c1C [sunitinib, Sunitinib]
3 of 39
  share of breast specimens responsive to sunitinib (aAUC of ≦7.85): 7.6%
8 of 39
  share of breast specimens with intermediate response (aAUC of 7.85-9.22): 20.5%
28 of 39
  share of breast specimens non-responsive to the drug (aAUC of ≧9.22): 71.7%
